Columns and labels:
KEAP1 C151 = biological target: T1, KEAP1 C151 (Homo sapiens, UniProt Q14145); assay: Nrf2 TMT measurement: in vitro TE50 for KEAP1 C151 (IA-DTB competition, targeted TMT mass spectrometry) in MDA-MB-468 cell lysate; assay type: binding; conditions: in vitro target engagement of KEAP1 C151, targeted TMT, read-out: KEAP1_C151 TE50
T1 construct: treating 500 μg of cell lysate generated from MDA-MB-468 breast cancer cells with DMSO or compound; endogenous in cells; host or cells: MDA-MB-468 breast cancer cell lysate
Summary of the method: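 Occupancy of KEAP1 C151 measured as loss of IA-DTB labeling (200 μM, 1 h, room temperature) after 1 h compound pre-treatment of MDA-MB-468 cell lysate.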

Nrf2 = Nrf2 antagonism assay: ARE luciferase reporter in KYSE-70 cells; assay type: cell-based; conditions: positive Imax corresponds to Nrf2 antagonism; for Emax: Homo sapiens, KYSE-70, KYSE-70 cells, read-out: KYSE70 Cellular ARE Luciferase Imax (%); for KYSE70 Cellular ARE Luciferase Imax (%): KYSE-70 cells
Summary of the method: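 Dose-response curves give IC50 and Imax, with positive Imax read as Nrf2 antagonism, i.e. reduced luciferase signal. Reporter cells are Nrf2-high KYSE-70 (Nrf2 W24C mutant) bearing ARE-controlled luciferase. Antagonists are proposed to act at KEAP1 C151, speeding Nrf2 degradation.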

T1 sequence (Q14145 whole entry): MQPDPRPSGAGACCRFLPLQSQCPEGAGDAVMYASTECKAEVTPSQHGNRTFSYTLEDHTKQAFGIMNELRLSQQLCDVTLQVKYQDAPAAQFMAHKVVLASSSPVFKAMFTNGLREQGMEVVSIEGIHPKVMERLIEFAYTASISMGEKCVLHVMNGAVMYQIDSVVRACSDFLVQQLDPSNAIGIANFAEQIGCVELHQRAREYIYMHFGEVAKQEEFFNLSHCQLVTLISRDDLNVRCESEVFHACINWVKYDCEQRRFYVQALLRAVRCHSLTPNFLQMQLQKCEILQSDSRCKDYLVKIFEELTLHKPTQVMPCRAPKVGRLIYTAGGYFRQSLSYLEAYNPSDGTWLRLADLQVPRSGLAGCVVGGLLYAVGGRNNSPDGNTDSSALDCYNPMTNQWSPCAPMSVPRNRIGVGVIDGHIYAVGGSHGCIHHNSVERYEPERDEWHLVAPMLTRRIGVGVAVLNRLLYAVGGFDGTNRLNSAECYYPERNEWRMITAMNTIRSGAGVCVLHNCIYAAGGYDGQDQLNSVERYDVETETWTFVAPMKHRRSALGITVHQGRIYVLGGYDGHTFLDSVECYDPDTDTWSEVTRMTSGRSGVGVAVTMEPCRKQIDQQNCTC

IC50 (KEAP1 C151) [nM] | SMILES | Emax (Nrf2) [%] | KYSE70 Cellular ARE Luciferase Imax (%) (Nrf2)
870 | C=CC(=O)N1CC2(CC2)OCC1(C)c1cc(Cl)cc(-c2ccnc(N)n2)c1 (single isomer, unassigned) [Compound 161, 1-(6-(3-(2-aminopyrimidin-4-yl)-5-chlorophenyl)-6-methyl-4-oxa-7-azaspiro[2.5]octan-7-yl)prop-2-en-1-one] | 83 | 
610 | C=CC(=O)N1CC2(CCCC2)OCC1(C)c1cc(Cl)cc(-c2ccnc(N)n2)c1 (single isomer, unassigned) [Compound 163, 1-(8-(3-(2-aminopyrimidin-4-yl)-5-chlorophenyl)-8-methyl-6-oxa-9-azaspiro[4.5]decan-9-yl)prop-2-en-1-one] | 72 | 
440 | C=CC(=O)N1CC2(CCCC2)OCC1(C)c1cc(Cl)cc(-c2ncnc(N)n2)c1 (single isomer, unassigned) [Compound 164, 1-(8-(3-(4-amino-1,3,5-triazin-2-yl)-5-chlorophenyl)-8-methyl-6-oxa-9-azaspiro[4.5]decan-9-yl)prop-2-en-1-one] | 85 | 
330 | C=CC(=O)N1CC2(CC2)OCC1(C)c1cc(Cl)cc(-c2ncc(F)cn2)c1 (single isomer, unassigned) [Compound 165, 1-(6-(3-chloro-5-(5-fluoropyrimidin-2-yl)phenyl)-6-methyl-4-oxa-7-azaspiro[2.5]octan-7-yl)prop-2-en-1-one] | 53 | 
530 | C=CC(=O)N1CC2(CCCC2)OCC1(C)c1cc(Cl)cc(-c2ncc(F)cn2)c1 (single isomer, unassigned) [Compound 166, 1-(8-(3-chloro-5-(5-fluoropyrimidin-2-yl)phenyl)-8-methyl-6-oxa-9-azaspiro[4.5]decan-9-yl)prop-2-en-1-one] | 50 | 
2890 | C=CC(=O)N1CC2(CC2)OCC1(C)c1cc(Cl)cc(-c2cc(N)ncn2)c1 (single isomer, unassigned) [Compound 167, 1-(6-(3-(6-aminopyrimidin-4-yl)-5-chlorophenyl)-6-methyl-4-oxa-7-azaspiro[2.5]octan-7-yl)prop-2-en-1-one] | 87 | 
120 | C=CC(=O)N1CC2(COC2)C1c1cc(Cl)cc(-c2ccnc(N)n2)c1 (single isomer, unassigned) [Compound 168] | 74 | 
70 | C=CC(=O)N1[C@H](C(=O)N(C)C)COC[C@H]1c1cc(Cl)nc(-c2cc(N)ncn2)c1 (single isomer, unassigned) [Compound 169] | 82 | 
1670 | C=CC(=O)N1CC2(CCCC2)OCC1(C)c1cc(Cl)cc(-c2cc(N)ncn2)c1 (single isomer, unassigned) [Compound 170, 1-(8-(3-(6-aminopyrimidin-4-y1)-5-chlorophenyl)-8-methyl-6-oxa-9-azaspiro[4.5]decan-9-yl)prop-2-en-1-one] | 81 | 
350 | C=CC(=O)N1CC2(CCCC2)OCC1(C)c1cc(Cl)cc(-c2nccc(N)n2)c1 (single isomer, unassigned) [Compound 171, 1-(8-(3-(4-aminopyrimidin-2-yl)-5-chlorophenyl)-8-methyl-6-oxa-9-azaspiro[4.5]decan-9-yl)prop-2-en-1-one] | 72 | 
20 | C=CC(=O)N1[C@H](C(N)=O)COC[C@H]1c1cc(Cl)nc(-c2cc(N)ncn2)c1 (single isomer, unassigned) [Compound 172] | 71 | 
< 6.4 | C=CC(=O)N1[C@H](C(=O)NC)COC[C@H]1c1cc(Cl)nc(-c2cc(N)ncn2)c1 (single isomer, unassigned) [Compound 173] | 86 | 
76 | C=CC(=O)N1CC2(CC2)OCC1c1cc(Cl)nc(-c2cc(N)ncn2)c1 (single isomer, unassigned) [Compound 174, 1-(6-(2-(6-aminopyrimidin-4-yl)-6-chloropyridin-4-yl)-4-oxa-7-azaspiro[2.5]octan-7-yl)prop-2-en-1-one] |  | 51
32 | C=CC(=O)N1CC2(CC2)OCC1c1cc(Cl)nc(-c2cc(N)ncn2)c1 (single isomer, unassigned) [Compound 175, 1-(6-(2-(6-aminopyrimidin-4-yl)-6-chloropyridin-4-yl)-4-oxa-7-azaspiro[2.5]octan-7-yl)prop-2-en-1-one] |  | 92
150 | C=CC(=O)N1CCOC[C@H]1c1cc(Cl)cc(-c2nc(N)[nH]c(=O)n2)c1 (single isomer, unassigned) [Compound 177] | 87 | 
30 | C=CC(=O)N1CCOC[C@H]1c1cc(Cl)cc(-c2nc(C)nc(N)n2)c1 (single isomer, unassigned) [Compound 178] | 93 | 
190 | C=CC(=O)N1C[C@@H](C)OC[C@H]1c1cc(Cl)cc(-c2ccc(F)c(C(N)=O)c2)c1 (single isomer, unassigned) [Compound 179] | 92 | 
7.3 | C=CC(=O)N1[C@H](c2cc(Cl)nc(-c3ccc(F)c(C(N)=O)c3)c2)COC[C@H]1C(F)F (single isomer, unassigned) [Compound 180] | 90 | 

IC50 (KEAP1 C151) [nM] | SMILES | Emax (Nrf2) [%] | KYSE70 Cellular ARE Luciferase Imax (%) (Nrf2)
16 | C=CC(=O)N1C[C@H](C)OC[C@H]1c1cc(Cl)cc(-c2ccc(F)c(C(N)=O)c2)c1 (single isomer, unassigned) [Compound 182] | 89 | 
27 | C=CC(=O)N1CCN(C(C)=O)C[C@H]1c1cc(Cl)cc(-c2nccc(N)n2)c1 (single isomer, unassigned) [Compound 183] | 87 | 
120 | C=CC(=O)N1CCN(C(C)=O)C[C@H]1c1cc(Cl)cc(-c2cc(N)ncn2)c1 (single isomer, unassigned) [Compound 187] | 71 | 
18 | C=CC(=O)N1CCN(C(C)=O)C[C@H]1c1cc(Cl)cc(-c2ncc(N)cn2)c1 (single isomer, unassigned) [Compound 188] | 86 | 
6.6 | C=CC(=O)N1CC2(CC2)OCC1c1cc(Cl)nc(-c2ccn3ccnc3c2)c1 (single isomer, unassigned) [Compound 190, 1-(6-(2-chloro-6-(imidazo[1,2-a]pyridin-7-yl)pyridin-4-yl)-4-oxa-7-azaspiro[2,5]octan-7-yl)prop-2-en-1-one] | 75 | 
12 | C=CC(=O)N1CCOC[C@H]1c1cc(Cl)cc(-c2nc(N)nc(N)n2)c1 (single isomer, unassigned) [Compound 191] | 93 | 
6710 | C=CC(=O)N1CC2(CC2)OCC12COc1c(-c3ccnc(N)n3)cc(Cl)cc12 (single isomer, unassigned) [Compound 192] | 64 | 
11 | C=CC(=O)N1[C@H](c2cc(Cl)nc(-c3ccnc(N)n3)c2)COC[C@H]1C(F)F (single isomer, unassigned) [Compound 203] | 87 | 
11 | C=CC(=O)N1[C@H](CC#N)COC[C@H]1c1cc(Cl)cc(-c2cc(N)ncn2)c1 (single isomer, unassigned) [Compound 204] | 86 | 
34 | C=CC(=O)N1CCS(=O)(=O)CC1c1cc(Cl)cc(-c2ncnc(N)n2)c1 (single isomer, unassigned) [Compound 205, 1-(3-(3-(4-amino-1,3,5-triazin-2-yl)-5-chlorophenyl)-1,1-dioxidothiomorpholino)prop-2-en-1-one] |  | 92
520 | C=CC(=O)N1CCS(=O)(=O)CC1c1cc(Cl)cc(-c2ncnc(N)n2)c1 (single isomer, unassigned) [Compound 206, 1-(3-(3-(4-amino-1,3,5-triazin-2-yl)-5-chlorophenyl)-1,1-dioxidothiomorpholino)prop-2-en-1-one] |  | 55
45 | C=CC(=O)N1CCS(=O)(=O)CC1c1cc(Cl)cc(-c2ncc(N)cn2)c1 (single isomer, unassigned) [Compound 207, 1-(3-(3-(5-aminopyrimidin-2-yl)-5-chlorophenyl)-1,1-dioxidothiomorpholino)prop-2-en-1-one] | 90 | 
82 | C=CC(=O)N1CCS(=O)(=O)CC1c1cc(Cl)cc(-c2nccc(N)n2)c1 (single isomer, unassigned) [Compound 209, 1-(3-(3-(4-aminopyrimidin-2-yl)-5-chlorophenyl)-1,1-dioxidothiomorpholino)prop-2-en-1-one] | 93 | 
380 | C=CC(=O)N1CCOC[C@H]1c1cc(Cl)cc(-c2nc(O)n[nH]2)c1 (single isomer, unassigned) [Compound 210] | 55 | 
85 | C=CC(=O)N1CCOC[C@H]1c1cc(Cl)cc(-n2cc(N)cn2)c1 (single isomer, unassigned) [Compound 211] | 57 | 
69 | C=CC(=O)N1CCOC[C@H]1c1cc(Cl)cc(-c2cc(N)on2)c1 (single isomer, unassigned) [Compound 212] | 90 | 
470 | C=CC(=O)N1CCOC[C@H]1c1cc(Cl)cc(-c2cnc(=O)n(C)c2)c1 (single isomer, unassigned) [Compound 213] | 75 | 
100 | C=CC(=O)N1CCOC[C@H]1c1cc(Cl)cc(-c2ncnc(NC)n2)c1 (single isomer, unassigned) [Compound 214] | 93 | 

From patent US20260207621A1 (Vividion Therapeutics, Inc., priority 2022, published 2026)
